Molecular target: T1, Human complement C1s enzyme (Homo sapiens, UniProt P09871)
T1 construct: purified from human serum, Complement Technology, Inc; purchased Complement Technology, Inc; host or cells: human serum (plasma-derived native protein)
T1 sequence (P09871 438-688 limits assumed): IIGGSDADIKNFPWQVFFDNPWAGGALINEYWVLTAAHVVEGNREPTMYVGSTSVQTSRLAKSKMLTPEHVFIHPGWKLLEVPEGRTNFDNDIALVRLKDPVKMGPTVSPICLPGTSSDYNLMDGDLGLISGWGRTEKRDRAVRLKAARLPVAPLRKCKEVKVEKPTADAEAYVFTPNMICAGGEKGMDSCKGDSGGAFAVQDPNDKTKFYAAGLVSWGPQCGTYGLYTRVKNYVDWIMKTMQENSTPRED
T1 sequence (P09871 16-437 partner limits assumed): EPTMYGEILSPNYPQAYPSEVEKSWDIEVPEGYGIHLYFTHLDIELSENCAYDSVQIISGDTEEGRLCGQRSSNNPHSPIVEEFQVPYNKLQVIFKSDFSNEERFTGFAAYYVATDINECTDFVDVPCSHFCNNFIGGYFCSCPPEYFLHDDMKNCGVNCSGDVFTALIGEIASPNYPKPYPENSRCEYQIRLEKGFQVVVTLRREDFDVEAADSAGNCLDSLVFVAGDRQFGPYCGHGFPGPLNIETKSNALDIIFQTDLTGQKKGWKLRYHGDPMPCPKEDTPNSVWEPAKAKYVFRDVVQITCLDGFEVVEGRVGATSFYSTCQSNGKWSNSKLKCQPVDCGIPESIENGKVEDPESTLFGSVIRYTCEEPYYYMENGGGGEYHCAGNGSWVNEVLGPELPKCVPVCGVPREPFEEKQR
Test: Human C1s enzyme assay
Assay type: biochemical
Details: human complement C1s enzyme 1.16 nM, substrate Z-L-Lys-SBzl, A405; read-out: IC50 (Stars)
Method in brief: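 Serum-purified human C1s (1.16 nM final) preincubated 5 min at room temperature with compound in 50 mM Tris, 1 M NaCl, pH 7.5. Z-L-Lys-SBzl and DTNB added at 100 μM each; A405 recorded every 30 s. IC50 from nonlinear regression of reaction rates versus compound concentration.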

SMILES	IC50
Cc1cccc(-c2ncc(NCCCc3ccccc3)c(=O)n2CC(=O)NCc2cc3cnccc3[nH]2)c1F [Compound 435, N-((1H-pyrrolo[3,2-c]pyridin-2-yl)methyl)-2-(2-(2-fluoro-3-methylphenyl)-6-oxo-5-((3-phenylpropyl)amino)pyrimi-din-1(6H)-yl)acetamide]	< 100 nM
Cc1ccc(-c2ncc(N[C@H](C)c3ccc4oc5ccccc5c4c3)c(=O)n2CC(=O)NCc2cc3cnccc3[nH]2)c(F)c1 [Compound 436, (R)-N-((1H-pyrrolo[3,2-c]pyridin-2-yl)methyl)-2-(5-((1-(dibenzo[b,d]furan-2-yl)ethyl)-amino)-2-(2-fluoro-4-methyl-phenyl)-6-oxopyrimidin-1(6H)-yl)acetamide]	< 100 nM
Cc1ccc(-c2ncc(NCCCc3ccccc3)c(=O)n2CC(=O)NCc2cc3cnccc3[nH]2)c(F)c1 [Compound 437, N-((1H-pyrrolo[3,2-c]pyridin-2-yl)methyl)-2-(2-(2-fluoro-4-methylphenyl)-6-oxo-5-((3-phenylpropyl)amino)pyrimi-din-1(6H)-yl)acetamide]	< 100 nM
Cc1ccc(F)c(-c2ncc(N[C@H](C)c3ccc4oc5ccccc5c4c3)c(=O)n2CC(=O)NCc2cc3cnccc3[nH]2)c1 [Compound 438, (R)-N-((1H-pyrrolo[3,2-c]pyridin-2-yl)methyl)-2-(5-((1-(dibenzo[b,d]furan-2-yl)ethyl)-amino)-2-(2-fluoro-5-methyl-phenyl)-6-oxopyrimidin-1(6H)-yl)acetamide]	< 100 nM
Cc1ccc(F)c(-c2ncc(NCCCc3ccccc3)c(=O)n2CC(=O)NCc2cc3cnccc3[nH]2)c1 [Compound 439, N-((1H-pyrrolo[3,2-c]pyridin-2-yl)methyl)-2-(2-(2-fluoro-5-methylphenyl)-6-oxo-5-((3-phenylpropyl)amino)pyrimi-din-1(6H)-yl)acetamide]	< 100 nM
C[C@@H](Nc1ncc(N2CCCC2)n(CC(=O)NCc2cc3cnccc3[nH]2)c1=O)c1ccc2oc3ccccc3c2c1 [Compound 440, (R)-N-((1H-pyrrolo[3,2-c]pyridin-2-yl)methyl)-2-(3-((1-(dibenzo[b,d]furan-2-yl)ethyl)-amino)-2-oxo-6-(pyrrolidin-1-yl)pyrazin-1(2H)-yl)acetamide]	100 to 1000 nM
CC(C)c1cnc(N[C@H](C)c2ccc3oc4ccccc4c3c2)c(=O)n1CC(=O)NCc1cc2cnccc2[nH]1 [Compound 442, (R)-N-((1H-pyrrolo[3,2-c]pyridin-2-yl)methyl)-2-(3-((1-(dibenzo[b,d]furan-2-yl)ethyl)-amino)-6-isopropyl-2-oxopyr-azin-1(2H)-yl)acetamide]	< 100 nM
O=C(Cn1c(-c2ccccc2F)cnc(N[C@H](CF)c2ccc3oc4ccccc4c3c2)c1=O)NCc1cc2cnccc2[nH]1 [Compound 443, (S)-N-((1H-pyrrolo[3,2-c]pyridin-2-yl)methyl)-2-(3-((1-(dibenzo[b,d]furan-2-yl)-2-fluoroethyl)amino)-6-(2-fluorophenyl)-2-oxopyrazin-1(2H)-yl)acetamide]	< 100 nM
C[C@@H](Nc1ncc(N2CCNCC2)n(CC(=O)NCc2cc3cnccc3[nH]2)c1=O)c1ccc2oc3ccccc3c2c1 [Compound 444, (R)-N-((1H-pyrrolo[3,2-c]pyridin-2-yl)methyl)-2-(3-((1-(dibenzo[b,d]furan-2-yl)ethyl)-amino)-2-oxo-6-(piperazin-1-yl)pyrazin-1(2H)-yl)acetamide]	< 100 nM
C[C@@H](Nc1cnc(N2CCCCC2)n(CC(=O)NCc2cc3cnccc3[nH]2)c1=O)c1ccc(-c2ccccc2)s1 [Compound 445, (R)—N-((1H-Pyrrolo[3,2-c]pyridine-2-yl)methyl)-2-(6-oxo-5-((1-(5-phenylthiophen-2-yl)ethyl)amino)-2-(piperidin-1-yl)pyrimidin-1(6H)-yl)acetamide]	< 100 nM
C[C@@H](Nc1cnc(-c2cscn2)n(CC(=O)NCc2cc3cnccc3[nH]2)c1=O)c1ccc(-c2ccccc2F)cc1 [Compound 446, (R)-N-((1H-pyrrolo[3,2-c]pyridin-2-yl)methyl)-2-(5-((1-(2′-fluoro-[1,1′-biphenyl]-4-yl)ethyl)amino)-6-oxo-2-(thiazol-4-yl)pyrimidin-1(6H)-yl)acetamide]	< 100 nM
C[C@@H](Nc1cnc(-c2ccccn2)n(CC(=O)NCc2cc3cnccc3[nH]2)c1=O)c1ccc(-c2ccccc2F)cc1 [Compound 447, (R)-N-((1H-pyrrolo[3,2-c]pyridin-2-yl)methyl)-2-(5-((1-(2′-fluoro-[1,1′-biphenyl]-4-yl)ethyl)amino)-6-oxo-2-(pyridin-2-yl)pyrimidin-1(6H)-yl)acetamide]	< 100 nM
C[C@@H](Nc1cnc(N2CCCCC2)n(CC(=O)NCc2cc3cnccc3[nH]2)c1=O)c1ccc(Oc2ccccc2)cc1 [Compound 448, (R)-N-((1H-pyrrolo[3,2-c]pyridin-2-yl)methyl)-2-(6-oxo-5-((1-(4-phenoxyphenyl)-ethyl)amino)-2-(piperidin-1-yl)pyrimidin-1(6H)-yl)acet-amide]	100 to 1000 nM
C[C@@H](Nc1ncc(-c2ccccn2)n(CC(=O)NCc2cc3cnccc3[nH]2)c1=O)c1ccc(-c2ccccc2F)cc1 [Compound 449, (R)-N-((1H-pyrrolo[3,2-c]pyridin-2-yl)methyl)-2-(3-((1-(2′-fluoro-[1,1′-biphenyl]-4-yl)ethyl)amino)-2-oxo-6-(pyridin-2-yl)pyrazin-1(2H)-yl)acetamide]	< 100 nM
C[C@@H](Nc1cnc(C2=CCCCC2)n(CC(=O)NCc2cc3cnccc3[nH]2)c1=O)c1coc(-c2ccccc2)n1 [Compound 450, (R)-N-((1H-pyrrolo[3,2-c]pyridin-2-yl)methyl)-2-(2-(cyclohex-1-en-1-yl)-6-oxo-5-((1-(2-phenyloxazol-4-yl)-ethyl)amino)pyrimidin-1(6H)-yl)acetamide]	< 100 nM
C[C@@H](Nc1cnc(-c2ccc(OCCCCCCCN)cc2)n(CC(=O)NCc2cc3cnccc3[nH]2)c1=O)c1ccc2oc3ccccc3c2c1 [Compound 451, (R)—N-((1H-Pyrrolo[3,2-c]pyridine-2-yl)methyl)-2-(2-(4-((7-aminoheptyl)oxy)phenyl)-5-((1-(dibenzo[b,d]furan-2-yl)ethyl)amino)-6-oxopyrimidin-1(6H)-yl)acetamide]	< 100 nM
C[C@@H](Nc1cnc(-c2ccc(OCCOCCOCCN)cc2)n(CC(=O)NCc2cc3cnccc3[nH]2)c1=O)c1ccc2oc3ccccc3c2c1 [Compound 452, (R)-N-((1H-pyrrolo[3,2-c]pyridin-2-yl)methyl)-2-(2-(4-(2-(2-(2-aminoethoxy)ethoxy)-ethoxy)phenyl)-5-((1-(dibenzo [b,d]furan-2-yl)ethyl)amino)-6-oxopyrimidin-1(6H)-yl)-acetamide]	< 100 nM
C[C@@H](Nc1cnc(N2CCCCC2)n(CC(=O)NCc2cc3cnccc3[nH]2)c1=O)c1cnc(-c2ccccc2)o1 [Compound 453, (R)—N-((1H-Pyrrolo[3,2-c]pyridine-2-yl)methyl)-2-(6-oxo-5-((1-(2-phenyloxazol-5-yl)ethyl)amino)-2-(piperidin-1-yl)pyrimidin-1(6H)-yl)acetamide]	< 100 nM
O=C(Cn1c(-c2ccccc2)ncc(NCc2nnc(-c3ccccc3)s2)c1=O)NCc1cc2cnccc2[nH]1 [Compound 454, N-((1H-pyrrolo[3,2-c]pyridin-2-yl)methyl)-2-(6-oxo-2-phen-yl-5-(((5-phenyl-1,3,4-thiadia-zol-2-yl)methyl)amino)pyr-imidin-1(6H)-yl)acetamide]	< 100 nM
Cc1cnc(CNc2cnc(-c3ccccc3)n(CC(=O)NCc3cc4cnccc4[nH]3)c2=O)o1 [Compound 455, N-((1H-pyrrolo[3,2-c]pyridin-2-yl)methyl)-2-(5-(((5-methyl-oxazol-2-yl)methyl)amino)-6-oxo-2-phenylpyrimidin-1(6H)-yl)acetamide]	< 100 nM
O=C(Cn1c(-c2ccccc2)ncc(NCc2cc(-c3ccccc3F)on2)c1=O)NCc1cc2cnccc2[nH]1 [Compound 456, N-((1H-pyrrolo[3,2-c]pyridin-2-yl)methyl)-2-(5-(((5-(2-fluorophenyl)isoxazol-3-yl)-methyl)amino)-6-oxo-2-phen-ylpyrimidin-1(6H)-yl)acet-amide]	< 100 nM
O=C(Cn1c(-c2ccccc2)ncc(NCc2cc(-c3ccccc3)no2)c1=O)NCc1cc2cnccc2[nH]1 [Compound 457, N-((1H-pyrrolo[3,2-c]pyridin-2-yl)methyl)-2-(6-oxo-2-phen-yl-5-(((3-phenylisoxazol-5-yl)methyl)amino)pyrimidin-1(6H)-yl)acetamide]	< 100 nM
O=C(Cn1c(-c2ccccc2)ncc(NCc2cc(-c3ccccc3)ns2)c1=O)NCc1cc2cnccc2[nH]1 [Compound 458, N-((1H-pyrrolo[3,2-c]pyridin-2-yl)methyl)-2-(6-oxo-2-phen-yl-5-(((3-phenylisothiazol-5-yl)methyl)amino)pyrimidin-1(6H)-yl)acetamide]	< 100 nM

Source: patent US20260184707A1, “PHARMACEUTICAL COMPOUNDS FOR THE TREATMENT OF COMPLEMENT MEDIATED DISORDERS” (ALEXION PHARMACEUTICALS, INC., priority 2022, published 2026)
